Molecular target: T1, human CXCR4 receptor (Homo sapiens, UniProt P61073)
T1 construct: expressed in transfected cells
Test: Measurement of intracellular Ca+2 responses (FLIPR), antagonism of the SDF-1α response
Format: cell-based
Conditions: for IC50: HEK-Gqi5 cells stably expressing human CXCR4, Fluo-4 FLIPR, antagonism of SDF-1α 1.9 nM (EC65); for CXCR4 (% Inh): percent antagonism of SDF-1α 1.9 nM (EC65) response, HEK-Gqi5 human CXCR4 cells, value in brackets
How it was run: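 HEK-Gqi5 cells stably expressing CXCR4, Fluo-4-loaded (2 uM, 40 min, 37 °C), read on FLIPR. Compound (2.44-40,000 nM) added first for agonism, then SDF-1α at 1.9 nM final (EC65); IC50 and percent antagonism from second-addition calcium signal.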

T1 sequence (P61073 whole entry): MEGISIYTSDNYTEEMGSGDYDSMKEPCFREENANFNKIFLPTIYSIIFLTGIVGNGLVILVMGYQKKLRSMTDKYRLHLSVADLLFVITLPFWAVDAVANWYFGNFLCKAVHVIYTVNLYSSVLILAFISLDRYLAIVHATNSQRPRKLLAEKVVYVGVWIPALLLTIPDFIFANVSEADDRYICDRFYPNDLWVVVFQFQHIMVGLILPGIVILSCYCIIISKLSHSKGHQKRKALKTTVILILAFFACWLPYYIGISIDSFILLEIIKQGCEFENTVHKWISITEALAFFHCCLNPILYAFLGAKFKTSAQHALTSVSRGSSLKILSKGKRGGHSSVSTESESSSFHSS

Compound | IC50 (values in nM) | CXCR4 (% Inh) | IC50 (values given in μM)
COc1cc2nc(NCC(O)CN)nc(NC3CCN(Cc4c(OCCN(C)C)cccc4N(C)C)CC3)c2cc1OC (stereo not shown) [Compound 196, 1-Amino-3-({4-[(1-{2-(dimethylamino)-6-[2-(dimethylamino)ethoxy]benzyl}piperidin-4-yl)amino]-6,7-dimethoxyquinazolin-2-yl}amino)propan-2-ol] | 38 nM | 95% | –
COc1cc2nc(NCc3cncs3)nc(NC3CCN(Cc4c(OCCN(C)C)cccc4N(C)C)CC3)c2cc1OC [Compound 197, N˜4˜-(1-{2-(Dimethylamino)-6-[2-(dimethylamino)ethoxy]benzyl}piperidin-4-yl)-6,7-dimethoxy-N˜2˜-(1,3-thiazol-5-ylmethyl)quinazoline-2,4-diamine] | 34 nM | 85% | –
COc1cc2nc(NCc3cncn3C)nc(NC3CCN(Cc4c(OCCN(C)C)cccc4N(C)C)CC3)c2cc1OC [Compound 198, N˜4˜-(1-{2-(Dimethylamino)-6-[2-(dimethylamino)ethoxy]benzyl}piperidin-4-yl)-6,7-dimethoxy-N˜2˜-[(1-methyl-1H-imidazol-5-yl)methyl]quinazoline-2,4-diamine] | 36 nM | 98% | –
COc1cc2nc(NCCN(C)C)nc(NC3CCN(Cc4c(OCCCN(C)C)cccc4N(C)C)CC3)c2cc1OC [Compound 203, N˜4˜-(1-{2-(Dimethylamino)-6-[3-(dimethylamino)propoxy]benzyl}piperidin-4-yl)-N˜2˜-[2-(dimethylamino)ethyl]-6,7-dim ethoxyquinazoline-2,4-diamine] | 66 nM | 94% | –
COc1cc2nc(NCc3ncco3)nc(NC3CCN(Cc4c(OCCN(C)C)cccc4N(C)C)CC3)c2cc1OC [Compound 204, N˜4˜-(1-{2-(Dimethylamino)-6-[2-(dimethylamino)ethoxy]benzyl}piperidin-4-yl)-6,7-dimethoxy-N2(1,3-oxazol-2-ylmethyl)quinazoline-2,4-diamine] | 47 nM | 92% | –
COc1cc2nc(NCc3nccs3)nc(NC3CCN(Cc4c(OCCN(C)C)cccc4N(C)C)CC3)c2cc1OC [Compound 205, N˜4˜-(1-{2-(Dimethylamino)-6-[2-(dimethylamino)ethoxy]benzyl}piperidin-4-yl)-6,7-dimethoxy-N˜2˜-(1,3-thiazol-2-ylmethyl)quinazoline-2,4-diamine] | 32 nM | 100% | –
COc1cc2nc(NCc3c[nH]cn3)nc(NC3CCN(Cc4c(OCCN(C)C)cccc4N(C)C)CC3)c2cc1OC [Compound 206, N˜4˜-(1-{2-(Dimethylamino)-6-[2-(dimethylamino)ethoxy]benzyl}piperidin-4-yl)-N˜2˜-(1H-imidazol-4-ylmethyl)-6,7-dimethoxyquinazoline-2,4-diamine] | 16 nM | 96% | –
COc1cc2nc(NCCCO)nc(NC3CCN(Cc4c(OCCN(C)C)cccc4N(C)C)CC3)c2cc1OC [Compound 207, 3-({4-[(1-{2-(Dimethylamino)-6-[2-(dimethylamino)ethoxy]benzyl}piperidin-4-yl)amino]-6,7-dimethoxyquinazolin-2-yl}amino)propan-1-ol] | 69 nM | 99% | –
COc1cc2nc(NCCO)nc(NC3CCN(Cc4c(OCCN(C)C)cccc4N(C)C)CC3)c2cc1OC [Compound 208, 2-({4-[(1-{2-(Dimethylamino)-6-[2-(dimethylamino)ethoxy]benzyl}piperidin-4-yl)amino]-6,7-dimethoxyquinazolin-2-yl}amino)ethanol] | 169 nM | 98% | –
COc1cc2nc(NCCc3nccs3)nc(NC3CCN(Cc4c(OCCN(C)C)cccc4N(C)C)CC3)c2cc1OC [Compound 209, N˜4˜-(1-{2-(Dimethylamino)-6-[2-(dimethylamino)ethoxy]benzyl}piperidin-4-yl)-6,7-dimethoxy-N˜2˜-[2-(1,3-thiazol-2-yl)ethyl]quinazoline-2,4-diamine] | 47 nM | 92% | –
COc1cc2nc(NCCc3ncc[nH]3)nc(NC3CCN(Cc4c(OCCN(C)C)cccc4N(C)C)CC3)c2cc1OC [Compound 210, N˜4˜-(1-{2-(Dimethylamino)-6-[2-(dimethylamino)ethoxy]benzyl}piperidin-4-yl)-N˜2˜-[2-(1H-imidazol-2-yl)ethyl]-6,7-dimethoxyquinazoline-2,4-diamine] | 65 nM | 97% | –
COc1cc2nc(NCc3cnco3)nc(NC3CCN(Cc4c(OCCN(C)C)cccc4N(C)C)CC3)c2cc1OC [Compound 212, N˜4˜-(1-{2-(Dimethylamino)-6-[2-(dimethylamino)ethoxy]benzyl}piperidin-4-yl)-6,7-dimethoxy-N˜2˜-(1,3-oxazol-5-ylmethyl)quinazoline-2,4-diamine] | 58 nM | 98% | –
COc1cc2nc(NCc3ncc[nH]3)nc(NC3CCN(Cc4c(OCCN(C)C)cccc4N(C)C)CC3)c2cc1OC [Compound 213, N˜4˜-(1-{2-(Dimethylamino)-6-[2-(dimethylamino)ethoxy]benzyl}piperidin-4-yl)-N˜2˜-(1H-imidazol-2-ylmethyl)-6,7-dimethoxyquinazoline-2,4-diamine] | 30 nM | 100% | –
COc1cc2nc(NCc3cn(C)cn3)nc(NC3CCN(Cc4c(OCCN(C)C)cccc4N(C)C)CC3)c2cc1OC [Compound 215, N˜4˜-(1-{2-(Dimethylamino)-6-[2-(dimethylamino)ethoxy]benzyl}piperidin-4-yl)-6,7-dimethoxy-N˜2˜-[(1-methyl-1H-imidazol-4-yl)methyl]quinazoline-2,4-diamine] | 73 nM | 99% | –
COc1cc2nc(NCc3cc[nH]n3)nc(NC3CCN(Cc4c(OCCN(C)C)cccc4N(C)C)CC3)c2cc1OC [Compound 216, N˜4˜-(1-{2-(Dimethylamino)-6-[2-(dimethylamino)ethoxy]benzyl}piperidin-4-yl)-6,7-dimethoxy-N˜2˜-(1H-pyrazol-3-ylmethyl)quinazoline-2,4-diamine] | 32 nM | 100% | –
COc1cccc(N(C)C)c1CN1CCC(Nc2nc(N3CCCN(C)CC3)nc3ccccc23)CC1 [Compound 217, N-(1-(2-(Dimethylamino)-6-methoxybenzyl)piperidin-4-yl)-2-(4-methyl-1,4-diazepan-1-yl)quinazolin-4-amine] | – | 100% | 2100 nM
COc1cccc(N(C)C)c1CN1CCC(Nc2nc(N3CCN(C)CC3)nc3ccccc23)CC1 [Compound 218, N-(1-(2-(Dimethylamino)-6-methoxybenzyl)piperidin-4-yl)-2-(4-methyl-piperazin-1-yl)quinazolin-4-amine] | – | 84% | 1200 nM
COc1cc2nc(NCCCN(C)C)nc(NC3CCN(Cc4ccccc4N(C)C(C)C)CC3)c2cc1OC [Compound 224, N2-(3-(Dimethylamino)propyl)-N4-(1-(2-(isopropyl(methyl)amino)benzyl)piperidin-4-yl)-6,7-dimethoxyquinazoline-2,4-diamine] | 695 nM | 92% | –
COc1cccc(N(C)C)c1CN1CCC(Nc2nc(NCCCNC(=O)OC(C)(C)C)nc3ccccc23)CC1 [Compound 225, tert-Butyl-3-(4-(1-(2-(dimethylamino)-6-methoxybenzyl)piperidin-4-ylamino)quinazolin-2-ylamino)propylcarbamate] | 614 nM | 88% | –
COc1cc2nc(NCCCN)nc(NC3CCN(Cc4c(OC)cccc4N(C)C)CC3)c2cc1OC [Compound 227] | 105 nM | 94% | –
